Experimental data reported in patent US4868195A, “Novel enolamides, pharmaceutical compositions and methods of use thereof for activity as modulators of the arachidonic acid cascade” (Warner-Lambert Company, priority 1988, dated 1989).
Where “and” joins values, the source holds several entries; their conditions need not be identical. Equal values may be shown once.

Target: T1, human leukocyte 5-lipoxygenase (Homo sapiens, UniProt P09917)
T1 construct: endogenous in cells; host or cells: intact leukocytes isolated from human blood
T1 sequence (P09917 1-674): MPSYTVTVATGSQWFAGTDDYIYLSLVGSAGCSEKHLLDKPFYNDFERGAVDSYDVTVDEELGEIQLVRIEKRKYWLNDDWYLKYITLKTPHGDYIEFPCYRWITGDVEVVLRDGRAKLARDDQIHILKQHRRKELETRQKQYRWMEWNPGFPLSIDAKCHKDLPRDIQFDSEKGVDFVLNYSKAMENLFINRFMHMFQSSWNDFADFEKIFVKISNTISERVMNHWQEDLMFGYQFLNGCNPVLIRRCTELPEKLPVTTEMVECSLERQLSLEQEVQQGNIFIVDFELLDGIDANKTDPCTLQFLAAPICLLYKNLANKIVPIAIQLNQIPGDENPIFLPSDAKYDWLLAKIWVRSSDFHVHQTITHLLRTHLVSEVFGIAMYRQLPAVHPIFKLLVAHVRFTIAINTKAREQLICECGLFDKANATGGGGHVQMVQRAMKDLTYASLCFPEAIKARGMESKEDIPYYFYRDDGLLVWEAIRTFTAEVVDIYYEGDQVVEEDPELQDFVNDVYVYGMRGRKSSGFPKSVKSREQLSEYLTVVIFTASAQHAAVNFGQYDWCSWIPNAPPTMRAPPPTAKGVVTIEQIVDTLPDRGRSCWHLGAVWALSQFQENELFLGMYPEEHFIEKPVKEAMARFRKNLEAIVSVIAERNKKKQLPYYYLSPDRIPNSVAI
Experiment: 5-lipoxygenase inhibition in human leukocytes, 5-HETE formation (5LOA; methods 5LOA1 and 5LOA2)
Type: cell-based
Conditions: 5-HETE formation, human leukocytes; read-out: Concentration (M) for 50.0 % Inhibition, IC (5LOA)
Description: To Evaluate the Effect of Each Compounds as a 5-Lipoxygenase Inhibitor in Comparison to Standard Reference Agents in Human Leukocytes (5LOA1)
The purpose of this assay is to evaluate the activity of each compound as an inhibitor of human leukocyte 5-lipoxygenase.
Arachidonic acid and calcium ionophore A23187 are obtained from Sigma (St. Louis, MO). Silica gel plates, GF are obtained from Analtech (Newark, DE). Arachidonic acid, (1-^14 C) and 5-HETE (^3 H), 5 (S)-hydroxy-6-trans,8,11,14-cis eicosatetraenoic acid, are obtained from New England Nuclear (Boston, MA). Six percent Dextran-70 in 0.9% NaCl is obtained from Cutter Labs (Berkeley, CA).
Preparation of Leukocytes
Fresh blood from normal adult men who had not received any drugs for at least the previous five days is obtained by the Community Research Clinic (WL/PD) using venipuncture and collected into heparinized vacuotainer tubes. To every 100 ml of pooled blood is added 25 ml of dextran solution (6% dextran -70 in 0.9% sodium chloride containing 3% dextrose) and this is mixed gently in a plastic cylinder. The mixture is left to stand at room temperature for at least 90 minutes. The upper layer which is rich in leukocytes and platelets is then carefully decanted into 50 ml plastic tubes and centrifuged at about 100×g for eight minutes in an IEC centrifuge and rotor number 269 (about 600 rpm). The supernatant fluid is discarded and the pellet is resuspended in 10 ml of 0.87% ammonium chloride for exactly two minutes. This procedure is to lyse completely contaminating red blood cells. Leukocytes are then separated by centrifugation for ten minutes. The pellet is washed three times by suspension in 20 ml PBS (sodium chloride, 7.1 g; Na2 HPO4, 1.15 g; KH2 PO4, 0.2 g, and KCl, 0.2 g/L) and centrifuged as before. The final pellet is suspended in PBS containing 0.87 mM CaCl2. Viability of the cells is then checked using trypan blue exclusion method and is found to be over 90%.
5-Lipoxygenase Enzyme Assay
Leukocyte cells in suspension (0.98 ml) are incubated with or without test compounds for five minutes at 37° C. in a shaking water bath. At this time a 17 μl mixture is prepared per 1 ml of cell suspension: 100 mM arachidonic acid, 1 μl, 0.05 μCi ^14 C-arachidonic acid in 5 μl; 1 mM calcium ionophore A23187, 10 μl (1). This mixture is added and the incubation continued for five minutes. The reaction is stopped by adding four volumes of absolute ethanol and the mixture is kept in ice for 30 minutes. The floculated precipitate is separated by centrifugation at about 37,000×g for 20 minutes (Beckman Instruments rotor number 40). The alcohol extract is taken to dryness under a stream of nitrogen and the residue is dissolved in 100-200 μl absolute ethanol. At the time any turbidity is removed by centrifugation. An aliquot (25-50 μl) is applied onto 20×20 cm silica gel TLC plate and developed using the following solvent system: diethyl ether, petroleum ether (2040° C.), acetic acid (50:50:1 v/v). Zones of 1 cm apart are scraped from the TLC plate and transferred to mini-vials. Methanol (0.5 ml) is added to dissolve the radioactivity adsorbed to the silica gel and scintillation fluid (H. P., Beckman), 5 ml is then added and vials are counted in a liquid scintillation counter. A sample of ^3 H-5-HETE is applied and used for the identification of the formed 5-HETE.
Total radioactivity in the test as well as the control samples are normalized and the amount of 5-HETE present is calculated accordingly.
IC50 values are defined as the concentrations of test agents which caused a 50% inhibition of the formation of 5-HETE as compared to control and are determined by inspection of the concentration-response curves.
5-Lipoxygenase Assay Using Isolated Human Leukocytes (5LOA2)
The formation of 5-HETE in human leukocytes is considered a measure of 5-lipoxygenase activity. The protocol is described in the following. […]

Structure (SMILES)	IC50
O=C(Nc1ccc(CCc2c(F)c(F)c(F)c(F)c2F)cc1)C1=C(O)c2ccccc2S(=O)(=O)C1 [Example 64, N-[4-[2-(2,3,4,5,6-Pentafluorophenyl)ethyl]phenyl]-4-hydroxy-2H-1-benzothiopyran-3-carboxamide, 1,1-dioxide]	1.19e-05 M
O=C(Nc1ccc(C=Cc2ccc([N+](=O)[O-])cc2)cc1)C1CS(=O)(=O)c2ccccc2C1=O (centres unmarked) [Example 67, 2H-1-Benzothiopyran-3-carboxamide, 3,4-dihydro-N-[4-[2-(4-nitrophenyl)ethenyl]phenyl]-4-oxo-, 1,1-dixide]	1.17e-05 M
O=C(Nc1ccc(CCc2cccc3ccccc23)cc1)C1=C(O)c2ccccc2S(=O)(=O)C1 [Example 73, 2H-1-Benzothiopyran-3-carboxamide, 4-hydroxy-N-[4-[2-(1-naphthalenyl)ethyl]phenyl], 1,1-dioxide]	4.09e-06 M and 8.2e-06 M
O=C(Nc1ccc(C=Cc2ccc(Cl)c(Cl)c2)cc1)C1=C(O)c2ccccc2S(=O)(=O)C1 [Example 74, 2H-1-Benzothiopyran-3-carboxamide, N-[4-[2-(3,4-dichlorophenyl)ethenyl]phenyl]-4-hydroxy-, 1,1-dioxide]	9.3e-06 M
O=C(Nc1cccc(CCc2ccc(Cl)c(Cl)c2)c1)C1=C(O)c2ccccc2S(=O)(=O)C1 [Example 76, 2H-1-Benzothiopyran-3-carboxamide, N-[3-[2-(3,4-dichlorophenyl)ethyl]phenyl]-4-hydroxy-, 1,1-dioxide]	1.1e-05 M
O=C(Nc1ccc(Cc2ccc(Cl)c(Cl)c2)cc1)C1=C(O)c2ccccc2S(=O)(=O)C1 [Example 78, 2H-1-Benzothiopyran-3-carboxamide, N-[4-[(3,4-dichlorophenyl)methyl]phenyl]-4-hydroxy-, 1,1-dioxide]	1.06e-05 M
O=C(Nc1ccccc1CCCc1ccc(Cl)c(Cl)c1)C1=C(O)c2ccccc2S(=O)(=O)C1 [Example 80, 2H-1-Benzothiopyran-3-carboxamide, N-[2-[3-(3,4-dichlorophenyl)propyl]phenyl]-4-hydroxy-, 1,1-dioxide]	1.01e-05 M
COc1cc(CCc2ccc(NC(=O)C(=O)c3sc4ccccc4c3O)cc2)ccc1O [Example 142, Benzo[b]thiophene-2-acetamide, 3-hydroxy-N-[4-[2-(4-hydroxy-3-methoxyphenyl)ethyl]phenyl]-α-oxo-]	6e-06 M
O=C(Nc1cccc(CCc2ccc(Cl)c(Cl)c2)c1)c1sc2ccccc2c1O [Example 146, Benzo[b]thiophene-2-carboxamide, N-[3-[2-(3,4-dichlorophenyl)ethyl]phenyl]-3-hydroxy]	3.96e-06 M

Continued, values first:

IC50	Structure (SMILES)
1.77e-05 M	O=C(Nc1ccc(CCc2ccccc2)cc1)C1CS(=O)(=O)c2ccccc2C1=O (centres unmarked) [Example 16, 3,4-Dihydro-4-oxo-N-[(4-(2-phenyl)ethyl]-phenyl]-2H-1-benzothiopyran-3-carboxamide, 1,1-dioxide]
1.35e-05 M	COc1ccc(CCc2ccc(NC(=O)C3=C(O)c4ccccc4S(=O)(=O)C3)cc2)cc1OC [Example 18, N-[4-[2-(3,4-Dimethoxyphenyl)ethyl]phenyl]-4-hydroxy-2H-1-benzothiopyran-3-carboxamide, 1,1-dioxide]
1.8e-05 M	COc1ccc(CCc2ccc(NC(=O)C3CS(=O)(=O)c4ccccc4C3=O)cc2)cc1O (centres unmarked) [Example 27, 3,4-Dihydro-N-[4-[2-(3-hydroxy-4-methoxyphenyl)ethyl]phenyl]-4-oxo-2H-1-benzothiopyran-3-carboxamide, 1,1-dioxide]
7e-06 M	COc1ccc(CCc2ccc(NC(=O)C3CS(=O)(=O)c4ccccc4C3=O)cc2)cc1 (centres unmarked) [Example 41]
1.1e-05 M	O=C(Nc1ccc(CCc2ccc(-c3ccccc3)cc2)cc1)C1CS(=O)(=O)c2ccccc2C1=O (centres unmarked) [Example 46, N-[4-[2-([1,1'-biphenyl]-4-yl)ethyl]phenyl]-3,4-dihydro-4-oxo-2H-1-benzothiopyran-3-carboxamide, 1,1-dioxide]
1.59e-05 M and 1.91e-05 M	CCCCOc1ccc(CCc2ccc(NC(=O)C3CS(=O)(=O)c4ccccc4C3=O)cc2)cc1 (centres unmarked) [Example 48]
2.12e-06 M	O=C(Nc1ccc(CCc2ccc3ccccc3c2)cc1)C1=C(O)c2ccccc2S(=O)(=O)C1 [Example 51, 4-Hydroxy-N-[4-[2-(2-naphthalenyl)ethyl]phenyl]-2H-1-benzothiopyran-3-carboxamide, 1,1-dioxide]
3.8e-06 M	Cc1ccc(CCc2ccc(NC(=O)C3CS(=O)(=O)c4ccccc4C3=O)cc2)cc1C (centres unmarked) [Example 53, N-[4-[2-(3,4-Dimethylphenyl)ethyl]phenyl]-3,4-dihydro-4-oxo-2H-1-benzothiopyran-3-carboxamide, 1,1-dioxide]
5.25e-06 M	O=C(Nc1ccc(CCc2ccc(Cl)cc2)cc1)C1CS(=O)(=O)c2ccccc2C1=O (centres unmarked) [Example 54, N-[4-[2-(4-Chlorophenyl)ethyl]phenyl]-3,4-dihydro-4-oxo-2H-1-benzothiopyran-3-carboxamide, 1,1-dioxide]
9.2e-06 M	O=C(Nc1ccc(CCCc2ccc(Cl)c(Cl)c2)cc1)C1=C(O)c2ccccc2S(=O)(=O)C1 [Example 79, 2H-1-Benzothiopyran-3-carboxamide, N-[4-[3-(3,4-dichlorphenyl)propyl]phenyl]-4-hydroxy-, 1,1-dioxide]
5.22e-06 M	COc1ccc(CCc2ccc(NC(=O)c3sc4ccccc4c3O)cc2)cc1OC [Example 143, Benzo[b]thiophene-2-carboxamide, N-[4-[2-(3,4-dimethoxphenyl)ethyl]phenyl]-3-hydroxy]

Same assay, conditions: Concentration 1.00 E -5 M

% Inhibition (5LOA)	Structure (SMILES)
25.2%	CCCCCCCCCCc1ccc(NC(=O)C2CS(=O)(=O)c3ccccc3C2=O)cc1 (centres unmarked) [Example 60, N-(4-Decylphenyl)-3,4-dihydro-4-oxo-2H-1-benzoothiopyran-3-carboxamide, 1,1-dioxide]

Same assay, conditions: Concentration 2.00 E -5 M

% Inhibition (5LOA)	Structure (SMILES)
21.7%	CCCCCCCCCCc1ccc(NC(=O)C2CS(=O)(=O)c3ccccc3C2=O)cc1 (centres unmarked) [Example 60, N-(4-Decylphenyl)-3,4-dihydro-4-oxo-2H-1-benzoothiopyran-3-carboxamide, 1,1-dioxide]

Same assay, conditions: Concentration 5.00 E -6 M

% Inhibition (5LOA)	Structure (SMILES)
7.9%	CCCCCCCCCCc1ccc(NC(=O)C2CS(=O)(=O)c3ccccc3C2=O)cc1 (centres unmarked) [Example 60, N-(4-Decylphenyl)-3,4-dihydro-4-oxo-2H-1-benzoothiopyran-3-carboxamide, 1,1-dioxide]
